Assay results reported in US20090069394A1, “CANCER TREATMENT WITH EPOTHILONES” (priority 2003, published 2009).

What was measured:
[1] = system: Human epidermoid carcinoma KB-8511 cells; assay: KB-8511 human tumor xenograft model, loading/maintenance dosage regimens; type: in vivo, BALB/c nude mice
Description: 7,11-Dihydroxy-8,8,10,12,16-pentamethyl-3-[1-methyl-2-(2-methylsulfanyl-thiazol-4-yl)-vinyl]-4,17-dioxa-bicyclo[14.1.0]heptadecane-5,9-dione is dissolved in PEG300 and immediately diluted with saline (0.9% w/v NaCl) to the desired final concentration to be administered to mice as. The injected volume is 10 ml/kg i.v. Formulations are prepared immediately before use. Adriablastin/EÊ (Pharmacia and Upjohn) is purchased as a 2 mg/mL solution, and diluted with saline (0.9% NaCl) to prepare the 0.3 mg/mL solution used to treat animals. Taxol. (Bristol-Myers Squibb AG) is purchased as a 6 mg/ml solution, and diluted with saline to prepare the 1.5 mg/ml solution used to treat animals.
Human epidermoid carcinoma KB-8511 cells are obtained from Dr R. M. Baker, Roswell, Park Memorial Institute (Buffalo, N.Y., USA). Because of pgp170 overexpression, these cells are multi-drug resistant (Akiyama, et al 1985). KB-8511 cells are cultured as previously described.
The experimental details of the human tumor xenograft model has been described previously. A maximum of 10 female nude mice are kept under sterile conditions (type III cage, in an OHC zone) with free access to food and water. […] 7,11-Dihydroxy-8,8,10,12,16-pentamethyl-[1-methyl-2-(2-methylsulfanyl-thiazol-4-yl)-vinyl]-4,17-dioxa-bicyclo[14.1.0]heptadecane-5,9-dione is administered i.v. and tumor volumes and body weights are measured twice per week. Tumor volumes are determined by using callipers for measurement of longest (considered as Length) and shortest (considered as Diameter) dimensions of each tumors, and according to the formula Length×Diameter2×δ/6. Tumor growth and body weights are monitored twice weekly. When mentioned, antitumor activity is expressed as TIC % (mean increase of tumor volumes of treated animals divided by the mean increase of tumor volumes of control animals multiplied by 100) and/or as Tumor Regression (Reg %), calculated as ((mean tumor volume at the start of treatment minus mean tumor volume)/mean tumor volume at the start of treatment)×100. […]

[2] = Tolerability (body weight) in KB-8511 tumor-bearing mice; type: in vivo, BALB/c nude mice
Description: The experimental details of the human tumor xenograft model has been described previously. A maximum of 10 female nude mice are kept under sterile conditions (type III cage, in an OHC zone) with free access to food and water. KB-8511 tumors are established by subcutaneous injection of cells (2×10^6 cells in 100 μL PBS). The resulting tumors (at a size of 700 to 1000 mm3) are passaged in vivo at least 3 times prior to chemotherapy experimentation, and tumor-bearing mice are treated with Adriablastin/EÊ at 3 mg/kg (10 mL/kg) every week, in order to keep high levels of pgp170 expression. Tumor fragments of about 25 mg are implanted subcutaneously into the left flank of the animals with a 13 gauge trocar needle under Forene/EÊ (Abbott, Switzerland) anesthesia. Unless otherwise stated, treatments are always initiated when the mean tumor volume in each group reached 100 mm3. […] 7,11-Dihydroxy-8,8,10,12,16-pentamethyl-[1-methyl-2-(2-methylsulfanyl-thiazol-4-yl)-vinyl]-4,17-dioxa-bicyclo[14.1.0]heptadecane-5,9-dione is administered i.v. and tumor volumes and body weights are measured twice per week. Tumor volumes are determined by using callipers for measurement of longest (considered as Length) and shortest (considered as Diameter) dimensions of each tumors, and according to the formula Length×Diameter2×δ/6. Tumor growth and body weights are monitored twice weekly. […]

[3] = design: species or system BALB/c nude mice; details: mouse, in vivo
Description: BALB/c nude mice bearing KB-8511 xenograft tumors (initial volume of 250 mm3) were treated using various loading and maintenance dosage regimens to probe the validity of such regimens and to validate the predictions obtained with the PK-PD model. […] The kinetics of body weight loss on some of the tested loading and maintenance dosage regimens (L/MDR) were more benign (i.e. less fluctuating) than those observed on the corresponding fixed dosage regimens (FDR). […] It is concluded that the loading and maintenance dosing concept, by taking into account the very slow elimination rate of NVP-ABJ879, appears to represent an alternative dosing schemeunder which this drug can be dosed weekly.

[4] = cited from earlier work
[5] = system: colorectal, renal, prostatic, pancreatic, gastric and brain cancers; details: cited from earlier work

CSc1nc(C=C(C)C2CC3OC3(C)CCCC(C)C(O)C(C)C(=O)C(C)(C)C(O)CC(=O)O2)cs1 (centres unmarked) [7,11-Dihydroxy-8,8,10,12,16-pentamethyl-3-[1-methyl-2-(2-methylsulfanyl-thiazol-4-yl)-vinyl]-4,17-dioxa-bicyclo[14.1.0]heptadecane-5,9-dione]
tumor relapse ([1]; 1.5/0.5 mg/kg dosing): tumor relapse was observed in some of the animals
antitumor activity where tolerability improved (dose optimization) ([1]; initial tumor volume 100 mm3, tolerability assessed on body weight change): reduced antitumor activity
antitumor activity ([1]; loading and maintenance 1.5 mg/kg-0.5 mg/kg or 2.1 mg/kg-0.7 mg/kg, weekly i.v., initial tumor volume 250 mm3): strong antitumor activity
tolerability (stabilization of the body weight loss) ([2]; loading and maintenance 1.5 mg/kg-0.5 mg/kg or 2.1 mg/kg-0.7 mg/kg, weekly i.v.): enhanced tolerability
kinetics of body weight loss ([2]; some loading and maintenance dosage regimens (L/MDR) versus corresponding fixed dosage regimens (FDR)): more benign
elimination rate [3]: very slow

CC(=O)O[C@H]1C(=O)[C@@]2(C)[C@H]([C@H](OC(=O)c3ccccc3)[C@]3(O)C[C@H](OC(=O)[C@H](O)[C@@H](NC(=O)c4ccccc4)c4ccccc4)C(C)=C1C3(C)C)[C@]1(OC(C)=O)CO[C@@H]1C[C@@H]2O [TAXOL®, paclitaxel]
solubility in water [4]: extremely low
clinical activity as a single agent [5]: poorly active clinically
